One series concerns P388 Leukemia. Put plainly: Minimum effective dose and therapeutic index vs. P388 leukemia. Conditions: dose giving 45% increase in life span in P388 tumor bearing mice; ip days 1, 5 and 9. The series is classed as in vivo. The protocol: (§1) These analogues were also tested in tumor-free BDF1 male mice for determination of their MTD values (Table VIII). The animals (18-22 g) were given a broad range of doses of drugs in 5% dimethyl sulfoxide-saline on days 1, 5 and 9. Drugs were administered ip and the maximum tolerated doses of agents which caused death in only 10% of the tested animals in 21 days (i.e., LD10) were recorded as MTD. […] However, the MED values of 7-hydroxy-AMD and its precursor AMD-OZL 10a are high and are seven to tenfold of the MED values of 4a and 8a. On the basis of these MED values, the therapeutic indices of 8a and 4a are 70 and 96. The therapeutic index of 2a is 13, of 10a 10, and of AMD only 4.
^a Drugs administered ip once on days 1, 5 and 9 starting 1 day after
tumor implantation. Determinations were made from analysis of plotted
^b MED (minimum effective dose) is the dose (milligram/kilogram)
providing an increase in life span of 45% over control in P388 tumor

Series [1] has as its system CCRF-CEM human lymphoblastic leukemic cells. Put plainly: In vitro cytotoxicity against CCRF-CEM cells. It counts as cell-based. Conditions: 48 hr. The method, then:
^a Human lymphoblastic leukemic cells.
The analogues were tested for their cytotoxicity against tumor cells (time, 48 hr). […] This may be associated with the initial microsomal transformation of the "reverse" analogues to "symmetrical" analogue and/or other alternate bioactive forms (e.g., free-radicals, O2^-), followed by deactivation via formation of conjugates and facile elimination of these from the host. The "reverse" analogues show reduced toxicity in vivo and also the tritiated "reverse" 7a is metabolized in vitro.

For series [2], the target named is T1, NADPH cytochrome P-450 reductase (rat liver microsomes) (Rattus norvegicus, UniProt P00388).
T1 sequence (P00388 1-678): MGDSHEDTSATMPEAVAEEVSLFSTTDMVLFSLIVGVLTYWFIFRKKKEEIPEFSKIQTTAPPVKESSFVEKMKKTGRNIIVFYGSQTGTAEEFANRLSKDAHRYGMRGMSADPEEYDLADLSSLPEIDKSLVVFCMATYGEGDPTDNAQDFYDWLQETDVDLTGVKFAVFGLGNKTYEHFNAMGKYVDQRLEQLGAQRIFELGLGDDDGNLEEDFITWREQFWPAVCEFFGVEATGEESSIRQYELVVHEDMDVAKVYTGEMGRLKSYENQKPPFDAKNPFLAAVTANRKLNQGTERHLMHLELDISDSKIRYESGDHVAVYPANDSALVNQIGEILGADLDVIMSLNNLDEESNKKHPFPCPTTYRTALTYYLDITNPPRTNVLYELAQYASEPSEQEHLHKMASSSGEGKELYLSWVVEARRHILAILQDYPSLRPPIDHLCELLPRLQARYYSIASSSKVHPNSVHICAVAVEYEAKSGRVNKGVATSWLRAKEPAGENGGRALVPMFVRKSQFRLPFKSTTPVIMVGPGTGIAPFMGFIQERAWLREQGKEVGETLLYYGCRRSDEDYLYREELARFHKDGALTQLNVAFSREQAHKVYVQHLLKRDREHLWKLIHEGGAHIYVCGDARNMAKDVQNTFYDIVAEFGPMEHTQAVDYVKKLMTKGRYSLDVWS
Put plainly: Stimulation of NADPH oxidation in rat hepatic microsomal incubations.

For series [3], the system named is P388 cells. Description: Inhibition of DNA synthesis (methyl-[3H]thymidine incorporation) in P388 cells. It counts as cell-based, murine. The conditions noted are these: 50% reduction in 1 hr of methyl-[3H]thymidine incorporation, read-out: IC50 DNA synth. The protocol:
(§2) Experiments for inhibition of nucleic acid synthesis in tumor cells in vitro were carried out with P388 tumor cells, details of which were reported by Sengupta et al, J. Med. Chem., 18, 1175 (1975). […] AMD-OZLs inhibit either process with equal activity and with the potency of its metabolite 7-hydroxy-AMD.
^c IC50 (DNA) = concentration of inhibitor in μM required to
cause 50% reduction (in 1 hr) in methyl[^3 H]thymidine incorporation
into acid precipitable material with use of P388 cells.

The subject of series [4] is P388 lymphocytic leukemia. Description: In vivo antitumor activity against P388 leukemia. Also on record: species or system BDF1 mice. Conditions: for surv (surviving mice/total mice at 60 days) / % ILS / MST (range): P388, at optimal dose; for % ILS: 100(T/C - 1); for MST (range): control 11.0 (9-12); for optimal dose: P388, ip, days 1, 5 and 9, optimal nontoxic dose. The protocol:
The analogues were tested for their antitumor activities in P388 lymphocytic leukemia in male BDF1 mice. The tumor was implanted intraperitoneally (ip) with 10^6 cells. The drugs were also administered ip once daily on days 1, 5 and 9, beginning 1 day after tumor transplantation. Analogues were tested over a range of doses, but only the optimal nontoxic doses are listed.
^a 10^6 P388 cells implanted ip on day 0 into groups of eight
BDF1 male mice. Drugs administered ip. MST (range), median survival
time in days (range of individual animal deaths); % ILS, percent increase
in life span, calculated 100(T/C - 1), where T and C are median survival
times of treated and control animals; surv, number of surviving mice/tota

Series [5] is described as follows: Maximum tolerated dose (LD10) in tumor-free BDF1 male mice. Conditions: for MTD (maximum tolerated dose): lethal dose for 10% normal BDF1 male mice, 21 days (LD10), ip days 1, 5 and 9. The series is classed as in vivo. The protocol: as §1
^c MTD (maximum tolerated dose) is the lethal dose
(milligram/kilogram) for 10% normal BDF1 male mice (18-22 g); animal
calculated from a plot of logdose vs. percent mortality.

Another series has as its system B16 melanoma. Description: In vivo antitumor activity against B16 melanoma. Also on record: species or system BDF1 mice. Conditions: for % ILS / surv (survivors on day 65/total injected) / MST (range): at optimal dose; for MST (range): control 29 (20-48); for optimal dose: ip, days 1, 5, 9. The protocol:
AMD-OZL analogues 9a and 10a were about as active as AMD and 7-hydroxy-AMD. The potencies of these analogues are reduced in comparison to that of AMD; their optimal doses were higher than that of AMD.
^a 0.2 mL of 1:5 (weight/volume) brei of B16 melanoma implanted
ip on day 0 in groups of nine BDF1 mice. Drugs administered ip.
^b MST (range) median survival time in days (range of individual
^c % ILS (surv), percent increase in lifespan (survivors on day

In a further series the test system is rat hepatic microsomes. Description: Stimulation of adrenochrome formation (superoxide generation) in rat hepatic microsomal incubations.
In series [6] the test system is P388 cells. Put plainly: Inhibition of RNA synthesis (2-[14C]uridine incorporation) in P388 cells. It counts as cell-based, murine. Conditions: for IC50: 50% reduction in 1 hr of 2-[14C]uridine incorporation, read-out: IC50 RNA synth; for IC50 DNA/IC50 RNA: ratio. The method, then: as §2
^b IC50 (RNA) = concentration of inhibitor in μM required to
cause 50% reduction (in 1 hr) in 2[^14 C]uridine incorporation into
acid precipitable material with use of P388 cells.

Another series has as its system P388/ADR. Description: In vivo activity against P388/adriamycin-resistant leukemia. Also on record: species or system BDF1 mice. The protocol: (§3) ^a Male BDF1 mice inoculated ip: 10^6 cells inoculum, day 0.
(§4) Drugs administered in 10% dimethyl sulfoxidesaline on days 1, 5 and 9. %
(§5) ILS = percent increase in life span. Fractions in parentheses = tumorfree
(§6) survivors/total on day 60. P388/S (adriamycin sensitive) and P388/ADR
(§7) (adriamycin resistant) tumors were evaluated in the same experiment with […]

A further series concerns P388/S. Description: In vivo activity against P388/S (adriamycin sensitive) leukemia, Table VII. Also on record: species or system BDF1 mice. The protocol: as §3, §4, §5, §6, §7

By IC50 is commonly meant the concentration needed to halve the response being measured. Turning to `Cc1c2oc3c(C)c(O)cc(C(=O)N[C@@H]4C(=O)N[C@H](C(C)C)C(=O)N5CCC[C@H]5C(=O)N(C)CC(=O)N(C)[C@@H](C(C)C)C(=O)O[C@@H]4C)c3nc-2c(C(=O)N[C@@H]2C(=O)N[C@H](C(C)C)C(=O)N3CCC[C@H]3C(=O)N(C)CC(=O)N(C)[C@@H](C(C)C)C(=O)O[C@@H]2C)c(N)c1=O` [2a, 7-hydroxyactinomycin D, reference compound], the “MED (minimum effective dose)” value in the series on P388 Leukemia is given as 0.275 milligram/kilogram. Moreover, in series [1], the “in vitro (CCRF-CEM) ID50” value was 1000 nM. Moreover, the NADPH oxid in series [2] (340 nm, 37° C., phenobarbital induced microsomes, mean ± standard error of triplicate, basal 9.11 ± 0.30) is 29.9 ± 1.91 nmol min^-1 (mg of protein)^-1. In addition, the “percentage stimulation of NADPH oxidation over basal rate” value in series [2] ((drug-stimulated rate - basal rate)/basal rate × 100) turned out to be 228%. For the same molecule, the IC50 in the series on P388 cells [3] turned out to be 5.1 µM. Also, in [4], the “surv (surviving mice/total mice at 60 days)” value is reported as 0/8, the “% ILS” value is 136%, the “MST (range)” value is 26.0 (19-39) days and the optimal dose is reported as 1200.0 μg/kg per inj. In addition, in series [5], the “MTD (maximum tolerated dose)” value came to 3.50 milligram/kilogram. In [5] (tumor-free BDF1 male mice), the “MTD as fold of the MTD of AMD” value was “about 14 fold”. Also, in the series on B16 melanoma, the “% ILS” value is given as 52%, the “surv (survivors on day 65/total injected)” value is 1/9, the “MST (range)” value is on record as 44 (39-53) days and the optimal dose stood at 1200 μg/kg per inj. Further, the adrenochrome formation in the series with rat hepatic microsomes (480 nm, 37° C., no SOD, no more than 100 μM drug, basal 2.11 ± 0.11) is 7.29 ± 0.79 nmol min^-1 (mg of protein)^-1. The “adrenochrome formation in presence of SOD” value with rat hepatic microsomes (SOD (superoxide dismutase) 5 μg/mL added) is given as “inhibited”. In the series on rat hepatic microsomes (no SOD), the “percentage stimulation of adrenochrome formation over basal rate” value was 245%. Further, in the series on P388 cells [6], the IC50 was determined as 5.1 µM and the “IC50 DNA/IC50 RNA” value turned out to be 1.00.
Turning to `Cc1c2oc3c(C)c4oc(-c5ccccc5)nc4c(C(=O)NC4C(=O)NC(C(C)C)C(=O)N5CCCC5C(=O)N(C)CC(=O)N(C)C(C(C)C)C(=O)OC4C)c3nc-2c(C(=O)NC2C(=O)NC(C(C)C)C(=O)N3CCCC3C(=O)N(C)CC(=O)N(C)C(C(C)C)C(=O)OC2C)cc1=O` (stereo not drawn) [10a, 2-Phenyl-AMD--OZL], the “P388/ADR % ILS” value with P388/ADR (at optimal dose) is 88%. Also, the P388/ADR optimal dose in the series with P388/ADR (ip, days 1, 5 and 9) came out at 1.2 mg/kg. Also, the “MED (minimum effective dose)” value in the series on P388 Leukemia is 0.20 milligram/kilogram. In addition, the “in vitro (CCRF-CEM) ID50” value in [1] worked out at 500 nM. Also, the half-maximal inhibitory concentration (IC50) in the series with P388 cells [3] was determined as 5.7 µM. In the series on P388/S (at optimal dose), the “P388/S % ILS” value is reported as 186% and the “P388/S tumor-free survivors/total on day 60” value is 2/8. Besides, the P388/S optimal dose in the series on P388/S (ip, days 1, 5 and 9) is recorded as 1.0 mg/kg. Further, in series [4], the “surv (surviving mice/total mice at 60 days)” value is reported as 2/8, the “% ILS” value was determined as 186%, the “MST (range)” value was 31.5 (29-57) days and the optimal dose came to 1000.0 μg/kg per inj. Besides, the “MTD (maximum tolerated dose)” value in series [5] is 2.0 milligram/kilogram. In the series with B16 melanoma, the “% ILS” value is on record as 55%, the “surv (survivors on day 65/total injected)” value is on record as 2/9, the “MST (range)” value is 45 (33-56) days and the optimal dose turned out to be 900 μg/kg per inj. Also, in the series on P388 cells [6], the IC50 was found to be 3.2 µM and the “IC50 DNA/IC50 RNA” value is on record as 1.78.

The values above are taken from patent US4680382A, “Analogues of actinomycin D” (priority 1986, dated 1987).
